Values of other authors as cited in patent publication US20210299023A1, “COMPOSITIONS AND METHODS FOR HAIR GROWTH” (Allergan, Inc., priority 2010, published 2021).

How the values were obtained:
bald scalp of macaques = details: 0.05% latanoprost
eyelash = details: healthy patients

Structure (SMILES): CC(C)OC(=O)CCC/C=C\C[C@@H]1[C@@H](CC[C@@H](O)CCc2ccccc2)[C@H](O)C[C@@H]1O [latanoprost]
- hair growth (bald scalp of macaques): significant hair growth
- density and thickness of hair (bald scalp of macaques; after 3 months of treatment): increased significantly

Structure (SMILES): CCNC(=O)CCC/C=C\C[C@@H]1[C@@H](/C=C/[C@@H](O)CCc2ccccc2)[C@H](O)C[C@@H]1O [Bimatoprost, bimatoprost]
- eyelash growth (eyelash): increased length, thickness, and darkness
